Values of other authors as cited in patent publication US20080195229A1, “Decellularized pericardial tissue” (priority 2007, published 2008).

Experiments:
rabbit = conditions: in vivo, iv
[1] = test system: Chinese hamster ovary (CHO-K1) cells; conditions: in vitro
3T3 fibroblasts = conditions: in vitro

Row | Structure (SMILES) | solubility in alcohol (alcohol) | solubility in water (water) | LD50 (rabbit) | clastogenic response (genotoxicity) [1] | cytotoxicity compared with glutaraldehyde (3T3 fibroblasts)
1 | C[C@H](CCC(=O)O)[C@H]1CC[C@H]2[C@@H]3CC[C@@H]4C[C@H](O)CC[C@]4(C)[C@H]3C[C@H](O)[C@]12C [Deoxycholic acid] | soluble | sparingly soluble | 15 mg/kg | – | –
2 | COC(=O)C1=CO[C@@H](O)[C@@H]2C(CO)=CC[C@H]12 [genipin] | – | – | – | does not cause clastogenic response | substantially less cytotoxic than glutaraldehyde
